{"source": "patent US20200138792A1", "about": "“PHARMACEUTICAL COMBINATIONS OF ZONISAMIDE AND PRAMIPEXOLE, AND RELATED METHODS, FOR TREATING SYNUCLEINOPATHIES” (CHASE THERAPEUTICS CORPORATION, priority 2017, published 2020)", "origin": "cited, not measured here", "key": {"[1]": {"details": "25 mg-50 mg, alone or with levodopa"}, "[2]": {"tested_on": "nigrostriatal dopaminergic neurons", "details": "chronic administration"}, "alpha-synuclein": {"molecular_target": "alpha-synuclein (Homo sapiens, UniProt P37840)"}, "A53T α-synuclein": {"molecular_target": "T1, A53T α-synuclein (Homo sapiens, UniProt P37840, A53T)", "T1 construct": "host or cells: rat brain in vivo, transduced with a viral vector", "details": "40 mg/kg/day oral"}, "[3]": {"tested_on": "nigral TH-positive neurons", "details": "20 mg/kg, MPTP-treated mice"}, "nigral dopamine neurons": {"tested_on": "nigral dopamine neurons", "details": "30 mg/kg injection, 6-OHDA mice"}, "[4]": {"tested_on": "human neuroblastoma SH-SY5Y cells"}, "[5]": {"details": "5 mg/day of pramipexole"}, "[6]": {"molecular_target": "human wild-type alpha-synuclein (Homo sapiens, UniProt P37840)", "details": "hydrogen peroxide plus cytochrome c"}}}
{"smiles": "NS(=O)(=O)Cc1noc2ccccc12", "note": "[zonisamide, 1,2-benzisoxazole-3-methanesulfonamide]", "values": [{"measurement": "motor symptoms in patients with PD", "setting": "[1]", "result": "improve motor symptoms"}, {"measurement": "brain-derived neurotrophic factor content in striatum and ventral midbrain vs saline", "setting": "[2]", "result": "increased"}, {"measurement": "survival of nigrostriatal dopaminergic neurons, striatal dopaminergic terminals and motor function vs saline", "setting": "[2]", "result": "improved"}, {"measurement": "in vitro oligomerization and aggregation of alpha-synuclein", "setting": "alpha-synuclein", "result": "inhibits"}, {"measurement": "survival of nigrostriatal dopamine neurons", "setting": "A53T α-synuclein", "result": "no impact"}, {"measurement": "pace of degeneration vs control group", "setting": "A53T α-synuclein; four weeks after injection of viral vector for A53T α-synuclein gene", "result": "significantly delayed"}, {"measurement": "loss of nigral TH-positive neurons", "setting": "[3]", "result": "reduced the loss of nigral TH-positive neurons"}, {"measurement": "striatal dopamine depletion", "setting": "[3]", "result": "attenuating the associated striatal dopamine depletion"}, {"measurement": "loss of nigral dopamine neurons", "setting": "nigral dopamine neurons", "result": "prevented the loss of nigral dopamine neurons"}]}
{"smiles": "CCCN[C@H]1CCc2nc(N)sc2C1", "note": "[pramipexole, (S)-6-propylamino-4,5,6,7-tetrahydro-1,3-benzothiazole-2-amine]", "values": [{"measurement": "toxic effects of rotenone on dopaminergic neurons", "setting": "dopaminergic neurons; mouse PD model", "result": "inhibits"}, {"measurement": "immunoreactivity for alpha-synuclein", "setting": "dopaminergic neurons; rotenone mouse PD model", "result": "reducing"}, {"measurement": "in vitro oligomerization and aggregation of alpha-synuclein", "setting": "alpha-synuclein", "result": "diminishes synuclein oligomer formation"}, {"measurement": "aggregation of alpha-synuclein", "setting": "[4]", "result": "inhibit"}, {"measurement": "nausea, patients affected", "setting": "[5]", "result": 76, "unit": "%"}, {"measurement": "vomiting, patients affected", "setting": "[5]", "result": 39, "unit": "%"}, {"measurement": "patients not able to complete the study", "setting": "[5]; presumably intolerable GI adverse events", "result": 36, "unit": "%"}, {"measurement": "in vitro oligomerization of human wild-type alpha-synuclein", "setting": "[6]", "result": "decreases"}]}
